# Data reported in ChEMBL document CHEMBL5120927, “LEGO-Lipophosphonoxins: A Novel Approach in Designing Membrane Targeting Antimicrobials” (J Med Chem, 2022).
# Columns and labels:
# Enterococcus faecalis = test: Antibacterial activity against Enterococcus faecalis ATCC 29212 = CCM 4224 assessed as inhibition of bacterial growth incubated for 24 hrs by microdilution assay; type: functional
# Staphylococcus aureus [1] = test: Antibacterial activity against Staphylococcus aureus ATCC 29213 = CCM 4223 assessed as inhibition of bacterial growth incubated for 24 hrs by microdilution assay; type: functional
# Staphylococcus aureus [2] = test: Antibacterial activity against Staphylococcus aureus ATCC 29213 = CCM 4223 assessed as inhibition of bacterial growth incubated for 24 hrs in presence of BSA by microdilution assay; type: functional
# Escherichia coli [3] = test: Antibacterial activity against Escherichia coli ATCC 25922 = CCM 3954 assessed as inhibition of bacterial growth incubated for 24 hrs by microdilution assay; type: functional
# Escherichia coli [4] = test: Antibacterial activity against Escherichia coli ATCC 25922 = CCM 3954 assessed as inhibition of bacterial growth incubated for 24 hrs in presence of BSA by microdilution assay; type: functional
# Pseudomonas aeruginosa [5] = test: Antibacterial activity against Pseudomonas aeruginosa ATCC 27853 = CCM 3955 assessed as inhibition of bacterial growth incubated for 24 hrs by microdilution assay; type: functional
# [6] = Hemolytic activity in human RBC assessed as haemoglobin release measured after 3 hr; type: toxicity, cell-based, Erythrocyte; conditions: red blood cells (erythrocytes)
# [7] = Gradient chromatographic hydrophobicity index of the compound at pH 3.7 by HPLC analysis; type: ADME
# [8] = tested on: Staphylococcus epidermidis; test: Antibacterial activity against Staphylococcus epidermidis CCM 7221 assessed as inhibition of bacterial growth incubated for 24 hrs by microdilution assay; type: functional
# Staphylococcus aureus [9] = test: Antibacterial activity against methicillin resistant Staphylococcus aureus 4591/A assessed as reduction in microbial growth incubated for 24 hrs by microdilution assay; type: functional
# Escherichia coli [10] = test: Antibacterial activity against multidrug-resistant Escherichia coli CE5556 expressing CTX-M-15 assessed as reduction in microbial growth incubated for 24 hrs by microdilution assay; type: functional
# Enterococcus faecium = test: Antibacterial activity against vancomycin resistant Enterococcus faecium 419/ANA assessed as reduction in microbial growth incubated for 24 hrs by microdilution assay; type: functional
# Pseudomonas aeruginosa [11] = test: Antibacterial activity against multidrug-resistant Pseudomonas aeruginosa assessed as reduction in microbial growth incubated for 24 hrs by microdilution assay; type: functional
SMILES,MIC (Enterococcus faecalis) [µg/mL],MIC (Staphylococcus aureus [1]) [µg/mL],MIC (Staphylococcus aureus [2]) [µg/mL],MIC (Escherichia coli [3]) [µg/mL],MIC (Escherichia coli [4]) [µg/mL],MIC (Pseudomonas aeruginosa [5]) [µg/mL],HC50 at 3 h [6] [µg/mL],CHI [7],MIC [8] [µg/mL],MIC (Staphylococcus aureus [9]) [µg/mL],MIC (Escherichia coli [10]) [µg/mL],MIC (Enterococcus faecium) [µg/mL],MIC (Pseudomonas aeruginosa [11]) [µg/mL]
Cl.Cl.Cl.Cl.Cl.Cl.NCCCN(CCCN)CCP(=O)(OCCCCCCOP(=O)(CCN(CCCN)CCCN)OCC1CCCC1)OCC1CCCC1 (configuration not stated),> 128,128,> 128,> 128,> 128,> 128,> 1000,14.8,64,128,> 128,> 128,> 128
Cl.Cl.Cl.Cl.Cl.Cl.NCCCN(CCCN)CCP(=O)(OCCCCCCOP(=O)(CCN(CCCN)CCCN)OCCc1ccccc1)OCCc1ccccc1 (configuration not stated),> 128,64,> 128,> 128,> 128,> 128,> 200,11.9,64,64,> 128,> 128,> 128
CCCCCOP(=O)(CCN(CCN)CCN)OCCCCCCCCOP(=O)(CCN(CCN)CCN)OCCCCC.Cl.Cl.Cl.Cl.Cl.Cl (configuration not stated),> 128,8,8,2,> 128,> 128,> 200,34.7,2,8,> 128,> 128,> 128
Cl.Cl.Cl.Cl.Cl.Cl.NCCCN(CCCN)CCP(=O)(OCCCCCCOP(=O)(CCN(CCCN)CCCN)OCCCC1CCCCC1)OCCCC1CCCCC1 (configuration not stated),2,1,1,1,0.5,4,183,36.4,0.5,1,1,16,4
Cl.Cl.Cl.Cl.Cl.Cl.NCCCN(CCCN)CCP(=O)(OCCCCCCOP(=O)(CCN(CCCN)CCCN)OCCC12CC3CC(CC(C3)C1)C2)OCCC12CC3CC(CC(C3)C1)C2 (configuration not stated),1,0.5,0.2,> 128,1,1,72.2,38.4,0.5,0.5,1,2,2
CCCCC/C=C\CCOP(=O)(CCN(CCCN)CCCN)OCCCOP(=O)(CCN(CCCN)CCCN)OCC/C=C\CCCCC.Cl.Cl.Cl.Cl.Cl.Cl (configuration not stated),8,2,4,2,4,8,> 500,36.2,2,2,4,64,4
CCCCOP(=O)(CCN(CCCN)CCCN)OCCCCCCCCCCOP(=O)(CCN(CCCN)CCCN)OCCCC.Cl.Cl.Cl.Cl.Cl.Cl (configuration not stated),128,16,16,> 128,> 128,> 128,> 500,27.3,4,8,> 128,> 128,> 128
CCC/C=C\CCOP(=O)(CCN(CCCNC(=N)N)CCCNC(=N)N)OCCCCCCOP(=O)(CCN(CCCNC(=N)N)CCCNC(=N)N)OCC/C=C\CCC.Cl.Cl.Cl.Cl.Cl.Cl (configuration not stated),64,2,2,2,2,64,> 500,29.7,2,2,2,> 128,64
CCCCCCCCCCOP(=O)(CCN(CCCN)CCCN)OCCCOP(=O)(CCN(CCCN)CCCN)OCCCCCCCCCC.Cl.Cl.Cl.Cl.Cl.Cl (configuration not stated),1,1,1,1,4,2,31.6,43.7,1,1,1,4,2
Cl.Cl.Cl.Cl.Cl.Cl.NCCCN(CCCN)CCP(=O)(OCCCOP(=O)(CCN(CCCN)CCCN)OCC1CCCC1)OCC1CCCC1 (configuration not stated),> 128,> 128,> 128,> 128,> 128,> 128,> 1000,5,> 128,> 128,> 128,> 128,> 128
CCCCCCCOP(=O)(CCN(CCCN)CCCN)OCCCCOP(=O)(CCN(CCCN)CCCN)OCCCCCCC.Cl.Cl.Cl.Cl.Cl.Cl (configuration not stated),64,4,8,8,32,128,> 200,30.7,2,4,64,> 128,128
CCCCCCCCOP(=O)(CCN(CCCN)CCCN)OCCCOP(=O)(CCN(CCCN)CCCN)OCCCCCCCC.Cl.Cl.Cl.Cl.Cl.Cl (configuration not stated),8,2,2,2,4,16,> 500,35.5,2,2,4,64,8
Cl.Cl.Cl.Cl.Cl.Cl.NCCCN(CCCN)CCP(=O)(OCCCCCCCCCCCCOP(=O)(CCN(CCCN)CCCN)OCCc1ccccc1)OCCc1ccccc1 (configuration not stated),4,1,2,4,8,8,358,34.8,0.5,4,16,32,8
CCCCCCCCOP(=O)(CCN(CCCN)CCCN)OCCCCCCCCOP(=O)(CCN(CCCN)CCCN)OCCCCCCCC.Cl.Cl.Cl.Cl.Cl.Cl (configuration not stated),1,0.5,0.25,1,0.5,2,683,38.7,3,5,1,4,2
